pIC50: −log10 of the molar value.

One assay has as its target T1, rat NaPi-2b (Rattus norvegicus, UniProt Q9JJ09).
T1 construct: expressed in transfected cells; host or cells: Xenopus oocytes injected with cRNA
T1 sequence (Q9JJ09 1-695): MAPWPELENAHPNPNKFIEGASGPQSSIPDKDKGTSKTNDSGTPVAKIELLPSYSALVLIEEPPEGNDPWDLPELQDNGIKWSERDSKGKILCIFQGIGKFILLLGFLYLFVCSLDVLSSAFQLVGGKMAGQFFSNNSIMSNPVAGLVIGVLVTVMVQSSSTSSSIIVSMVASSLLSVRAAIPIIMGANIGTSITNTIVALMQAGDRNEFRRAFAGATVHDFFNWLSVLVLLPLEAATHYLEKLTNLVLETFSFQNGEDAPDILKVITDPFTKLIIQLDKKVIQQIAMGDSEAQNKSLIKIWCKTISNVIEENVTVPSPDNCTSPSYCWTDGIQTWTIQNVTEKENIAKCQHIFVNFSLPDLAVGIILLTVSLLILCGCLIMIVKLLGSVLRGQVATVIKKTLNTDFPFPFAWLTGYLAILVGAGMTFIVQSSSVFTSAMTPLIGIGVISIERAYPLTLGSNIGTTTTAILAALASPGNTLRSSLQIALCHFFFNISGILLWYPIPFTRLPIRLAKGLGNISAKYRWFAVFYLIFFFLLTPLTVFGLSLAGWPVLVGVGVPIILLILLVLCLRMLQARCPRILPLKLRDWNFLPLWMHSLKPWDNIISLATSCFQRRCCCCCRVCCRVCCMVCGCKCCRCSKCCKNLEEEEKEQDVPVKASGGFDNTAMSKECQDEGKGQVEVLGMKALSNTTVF
In words: Sodium-dependent phosphate uptake of Xenopus oocytes which expressed NaPi-2b (32P). The class given is cell-based. The note with it: Xenopus oocytes expressing rat NaPi-2b, 32P radioactive phosphorus; read-out: IC50 (phosphate uptake inhibitory activity). As for the experimental part:
Pharmacological Test Example 1
Experiment of Sodium-Dependent Phosphate Uptake of Xenopus oocytes which Expressed NaPi-2b
Degenerate primers were prepared from sequences of mouse NaPi-2b disclosed in Hilfiker H. et al., Pro Natl Acad Sci USA, 95 (24): 14564-14569, […] and sequences of human and rat NaPi-2a disclosed in Magagnin S. et al., Proc Natl Aca Sci USA, 90 (13): 5979-5983, 1993. RNA was extracted from the rat small intestine using ISOGEN; manufactured by NIPPON GENE CO., LTD (Japan). 400 bp gene fragments were obtained by PCR using, as a template, a cDNA library prepared with a cDNA synthesis kit (manufactured by STRATAGENE (US)). Thereafter, the above rat small intestine cDNA library was screened using the gene fragment as a probe, and the whole gene sequence of rat NaPi-2b was cloned. cRNA was synthesized from the cloned rat NaPi-2b cDNA with a cRNA synthesis kit (manufactured by Ambion (US)). The synthesized cRNA was injected into Xenopus oocytes (obtained from COPACETIC (Japan)) with a liquid microinjector (manufactured by Drummond (US)) and was cultured for 2 days to express rat NaPi-2b. Thereafter, for a group of derivatives, phosphate uptake inhibitory activity were measured using the Xenopus oocytes with ^32P radioactive phosphorus (manufactured by Daiichi Kagaku Inc. (Japan)). […] The inhibitory activity for 300 μM and 100 μM was determined from the same inhibition curve and expressed in percentage inhibition (%) in Table 5.
As usually defined, the pIC50 is −log10 of the IC50, conventionally taken in molar units. Take `Cc1ccc(/C=N/NC(=O)c2cc3ccccc3cc2NC(=O)c2cccc(CN(CC(C)O)CC(C)O)c2)cc1C` (stereo not drawn) [Compound 961, 3-{[Bis-(2-hydroxy-propyl)-amino]-methyl}-N-[3-(3,4-dimethyl-benzylidene-hydrazinocarbonyl)-naphthalen-2-yl]-benzamide]: the pIC50 was over 6.00.

Turning to `COc1ccc(C(=O)Nc2ccc(Br)cc2C(=O)N/N=C/c2cccc(Cl)c2)cc1OC` [Compound 59, N-[4-Bromo-2-(3-chloro-benzylidene-hydrazinocarbonyl)-phenyl]-3,4-dimethoxy-benzamide], the negative-log IC50 (pIC50) was 5.91.

Take `CC(O)CN(Cc1cccc(C(=O)Nc2ccc(OCC(O)CN3CCOCC3)cc2C(=O)N/N=C/c2ccc(Cl)c(C(F)(F)F)c2)c1)CC(C)O` (stereo not drawn) [Compound 954, 3-{[Bis-(2-hydroxy-propyl)-amino]-methyl}-N-[2-(4-chloro-3-trifluoromethyl-benzylidene-hydrazinocarbonyl)-4-(2-hydroxy-3-morpholin-4-yl-propoxy)-phenyl]-benzamide]: the negative-log IC50 (pIC50) is 4.22.

`CC(O)CN(Cc1cccc(C(=O)Nc2ccc(N3CCCC3=O)cc2C(=O)N/N=C/c2ccc(F)cc2)c1)CC(C)O` (stereo not drawn) [Compound 947, 3-{[Bis-(2-hydroxy-propyl)-amino]-methyl}-N-[2-(4-fluoro-benzylidene-hydrazinocarbonyl)-4-(2-oxo-pyrrolidin-1-yl)-phenyl]-benzamide]: the negative-log IC50 (pIC50) is 4.52.

Consider `Cc1ccc(/C=N/NC(=O)c2cc(N3CCCC3=O)ccc2NC(=O)c2cccc(CN(CC(C)O)CC(C)O)c2)cc1` (stereo not drawn) [Compound 948, 3-{[Bis-(2-hydroxy-propyl)-amino]-methyl}-N-[2-(4-methyl-benzylidene-hydrazinocarbonyl)-4-(2-oxo-pyrrolidin-1-yl)-phenyl]-benzamide], for which the pIC50 is 4.93.

Regarding `Cc1ccc(/C=N/NC(=O)c2cc(OCCCN3CCCCC3)ccc2NC(=O)c2cccc(CSCCO)c2)cc1C` [Compound 1041, N-[2-(3,4-Dimethyl-benzylidene-hydrazinocarbonyl)-4-(3-piperidin-1-yl-propoxy)-phenyl]-3-(2-hydroxy-ethylsulfanylmethyl)-benzamide], the pIC50 was 4.99.

On to `COc1ccc(C(=O)Nc2scc(C)c2C(=O)N/N=C/c2ccc(C)cc2)cc1OC` [Compound 519, 3,4-Dimethoxy-N-[4-methyl-3-(4-methyl-benzylidene-hydrazinocarbonyl)-thiophen-2-yl]-benzamide], for which the pIC50 was 5.76.

As for `CCN(CC)CCNCc1ccc(C(=O)Nc2ccc(Br)cc2C(=O)N/N=C/c2ccc(C)c(C)c2)cc1` [Compound 292, N-[4-Bromo-2-(3,4-dimethyl-benzylidene-hydrazinocarbonyl)-phenyl]-4-[(2-diethylamino-ethylamino)-methyl]-benzamide], the pIC50 was 5.46.

`Cc1cccc(/C=N/NC(=O)c2cc(Br)ccc2NC(=O)c2ccc(CSc3ccncc3)cc2)c1` [Compound 257, N-[4-Bromo-2-(3-methyl-benzylidene-hydrazinocarbonyl)-phenyl]-4-(pyridin-4-ylsulfanylmethyl)-benzamide]: the pIC50 was over 5.52.

For `COc1cc(OC)cc(C(=O)Nc2ccc(Br)cc2C(=O)N/N=C/c2ccc(OC)c(OC)c2)c1` [Compound 128, N-[4-Bromo-2-(3,4-dimethoxy-benzylidene-hydrazinocarbonyl)-phenyl]-3,5-dimethoxy-benzamide], the negative logarithm of the IC50 (pIC50) was 4.94.

On to `Cc1ccc(/C=N/n2c(-c3cccc(CSc4nc[nH]n4)c3)nc3sc4c(c3c2=O)CCCC4)cc1C` [Compound 646, 3-[(3,4-Dimethyl-benzylidene-)-amino]-2-[3-(1H-[1,2,4]triazol-3-ylsulfanylmethyl)-phenyl]-5,6,7,8-tetrahydro-3H-benzo[4,5]thieno[2,3-d]pyrimidin-4-one], for which the negative logarithm of the IC50 (pIC50) is 5.75.

For `Cc1ccc(/C=N/NC(=O)c2cc(N3CCSCC3)ccc2NC(=O)c2cccc(CSCCO)c2)cc1C` [Compound 926, N-[2-(3,4-Dimethyl-benzylidene-hydrazinocarbonyl)-4-thiomorpholin-4-yl-phenyl]-3-(2-hydroxy-ethylsulfanylmethyl)-benzamide], the negative logarithm of the IC50 (pIC50) was over 6.00.

On to `CCN(CC)CCN(C)Cc1cccc(C(=O)Nc2ccc(Cl)cc2C(=O)N/N=C/c2ccc(F)cc2)c1` [Compound 380, N-[4-Chloro-2-(4-fluoro-benzylidene-hydrazinocarbonyl)-phenyl]-3-{[(2-diethylamino-ethyl)-methyl-amino]-methyl}-benzamide], for which the pIC50 was 6.46.

On to `Cn1cccc1/C=N/NC(=O)c1cc(Br)ccc1NC(=O)c1cccnc1` [Compound 211, N-[4-Bromo-2-(1-methyl-1H-pyrrol-2-ylmethylene-hydrazinocarbonyl)-phenyl]-nicotinamide], for which the negative logarithm of the IC50 (pIC50) was 4.16.

In the case of `Cc1ccc(/C=N/NC(=O)c2cc(Br)ccc2NC(=O)c2ccc(CSc3ccncc3)cc2)cc1C` [Compound 259, N-[4-Bromo-2-(3,4-dimethyl-benzylidene-hydrazinocarbonyl)-phenyl]-4-(pyridin-4-ylsulfanylmethyl)-benzamide], the negative-log IC50 (pIC50) was over 5.52.

Turning to `CCN(CCO)Cc1ccc(C(=O)Nc2ccc(Cl)cc2C(=O)N/N=C/c2ccc(OC)cc2)cc1` [Compound 439, N-[4-Chloro-2-(4-methoxy-benzylidene-hydrazinocarbonyl)-phenyl]-4-{[ethyl-(2-hydroxy-ethyl)-amino]-methyl}-benzamide], the pIC50 is 4.54.

Regarding `COc1ccc(/C=N/NC(=O)c2cc(Cl)ccc2NC(=O)c2ccc(OC)c(OC)c2)cc1OC` [Compound 126, N-[4-Chloro-2-(3,4-dimethoxy-benzylidene-hydrazinocarbonyl)-phenyl]-3,4-dimethoxy-benzamide], the pIC50 was 5.19.

`CCN(CCO)Cc1ccc(C(=O)Nc2ccc(Cl)cc2C(=O)N/N=C/c2ccc(F)cc2)cc1` [Compound 433, N-[4-Chloro-2-(4-fluoro-benzylidene-hydrazinocarbonyl)-phenyl]-4-{[ethyl-(2-hydroxy-ethyl)-amino]-methyl}-benzamide]: the negative-log IC50 (pIC50) is 4.84.

The same assay, now with this note: phosphate uptake, oocytes expressing rat NaPi-2b; 300 μM, determined from inhibition curve.
The term inhibition denotes the share of the control response that was lost under treatment. A higher inhibition goes with a strong effect. In the case of `CCN(CC)CCN(C)Cc1cccc(C(=O)Nc2c(C)csc2C(=O)N/N=C/c2ccc(OC)cc2)c1` [Compound 530, 3-{[(2-Diethylamino-ethyl)-methyl-amino]-methyl}-N-[2-(4-methoxy-benzylidene-hydrazinocarbonyl)-4-methyl-thiophen-3-yl]-benzamide], the inhibition at 300 µM stood at 38.2%.

In the case of `CC(O)CN(Cc1cccc(C(=O)Nc2cscc2C(=O)N/N=C/c2ccc(Cl)c(C(F)(F)F)c2)c1)CC(C)O` (stereo not drawn) [Compound 978, 3-{[Bis-(2-hydroxy-propyl)-amino]-methyl}-N-[4-(4-chloro-3-trifluoromethyl-benzylidene-hydrazinocarbonyl)-thiophen-3-yl]-benzamide], the inhibition at 300 µM amounted to 74.1%.

In turn, `CCSCCNCc1ccc(C(=O)Nc2ccc(Br)cc2C(=O)N/N=C/c2ccc(F)cc2)cc1` [Compound 767, N-[4-Bromo-2-(4-fluoro-benzylidene-hydrazinocarbonyl)-phenyl]-4-[(2-ethylsulfanyl-ethylamino)-methyl]-benzamide] returned an inhibition at 300 µM of 81.8%.

The molecule `O=C(Nc1ccccc1C(=O)N/N=C/c1cccc(F)c1)c1ccccc1F` [Compound 237, 2-Fluoro-N-[2-(3-fluoro-benzylidene-hydrazinocarbonyl)-phenyl]-benzamide] registered an inhibition at 300 µM of 33.1%.

On to `COc1ccc(/C=N/NC(=O)c2cc(N3CCCC3=O)ccc2NC(=O)c2cccc(CN(CC(C)O)CC(C)O)c2)cc1` (stereo not drawn) [Compound 946, 3-{[Bis-(2-hydroxy-propyl)-amino]-methyl}-N-[2-(4-methoxy-benzylidene-hydrazinocarbonyl)-4-(2-oxo-pyrrolidin-1-yl)-phenyl]-benzamide], for which the inhibition at 300 µM worked out at 45%.

Take `COc1ccc(/C=N/NC(=O)c2cc(Br)ccc2NC(=O)c2ccc(CN3CCN(c4ccccn4)CC3)cc2)cc1` [Compound 777, N-[4-Bromo-2-(4-methoxy-benzylidene-hydrazinocarbonyl)-phenyl]-4-(4-pyridin-2-yl-piperazin-1-ylmethyl)-benzamide]: the inhibition at 300 µM was 34.2%.

The values above are taken from patent publication US8134015B2, “Compound inhibiting in vivo phosphorous transport and medicine containing the same” (Kyowa Hakko Kirin Co., Ltd., priority 2003, dated 2012).
